{"source": "patent US20240197761A1", "about": "“FUCOSYLATION AND IMMUNE MODULATION IN CANCER” (H. LEE MOFFITT CANCER CENTER AND RESEARCH INSTITUTE, INC., priority 2021, published 2024)", "system": "SW1 tumors", "experiment": "Control vs. L-fucose ± FTY720 model: tumor growth and flow cytometric profiling of tumors and lymph nodes (Table 1)", "type": "in vivo, C3H/HeN mice", "experimental": "FIGS. 15A-15E Lymph node egress is necessary for L-fucose-triggered tumor suppression; L-fucose increases intratumoral CD4+T stem and central memory cells. (a) Immune subpopulations markers use to profile by flow cytometry. (b) Volumetric growth curves for SW1 tumors in C3H/HeN mice fed without (Ctl) or with L-fucose (LF) and treated with FTY720 (Ctl mice administered FTY720: (FTY); LF-supplemented mice administered FTY720: (L+F)). FTY720 was administered at 20 μg per mouse every 2 days starting on Day 12, just prior to the initiation of LF (c) Pie charts showing ratios of intratumoral or lymph node-resident CD4+ or CD8+T cell subpopulations, as well as DC subtypes from mice at Day 14, 28, and 42 (each pie chart represents 4-5 mice). Assessment of cytotoxic CD4+ T cell populations (CRTAM+) and cytotoxic CD8+ T cell populations (GrzB+) from tumors at Day 28 (d) and Day 42 (e). The tumor growth curves are means±SEM from ≥7 mice per group. *=p<0.05.\nTumors of SW1 or SM1 melanoma cells from […] or C57BL/6 mice, respectively) were digested using 1× tumor digest buffer (0.5 mg/mL Collagenase I, 0.5 mg/mL Collagenase IV, 0.25 mg/mL Hyalyronidase V, 0.1 mg/mL DNAse I in HBSS (Millipore Sigma (St. Louis, MO)). Tumors were homogenized using the Miltenyi MACs dissociator. Red blood cells were lysed using ACK lysis buffer (Life Technologies, (Grand Island, NY)). Tumor homogenate cells were counted using a standard hemocytometer.\nTotal TILs were gated first to single cells (based on forward scatter height vs width, followed by side scatter height vs. width). Live cells were gated from the Zombie negative population from the population above. TILs were gated based on splenocyte size from a control spleen. Individual immune subpopulations were sub-gated from the total TIL population using the following staining criteria: CD3+ for CD3+ T cells; CD3+/CD4+/CD8− for CD4+T cells; CD3+/CD4−/CD8+ for CD8+ T cells, CD11c+/CD11b+ for DCs; either NK1.1 (for C57/BL6 mice) or DX5 (for C3H/HeJ) for NK cells; CD11b+/GR1+ for MDSC-like cells; and F4/80+ for macrophages. Single-cell suspensions from tumor and spleen tissue were stained with Live/Dead Zombie NIR (Biolegend, (San Diego, CA)) at 1:1,000 in PBS for 20 min. Cell suspensions were spun down and stained with the following with antibodies at 0.5 μg/ml per antibody: APC anti-mouse CD3, Pacific Blue anti-mouse CD4, BV785 anti-mouse CD8, PerCP anti-mouse CD25, FITC anti-mouse F4/80, PeCy7 anti-mouse CD11c, PE anti-mouse NK1.1 or PE anti-mouse DX5, and PerCP-Cy5.5 anti-mouse CD11 b. After staining, the cells were washed and fixed (2% formaldehyde), followed by another wash and flow cytometric analysis. The compensation controls were prepared using 0.5 μg/mL of each antibody with UltraComp eBeads, (ThermoFisher Scientific (Waltham, MA)). All samples were subject to flow cytometric profiling using a LSR Flow Cytometer (BD Biosciences (San Jose, CA)) and analysis as indicated using FlowJo software (BD Biosciences (San Jose, CA)).\nSW1 or SM1 mouse melanoma cells were injected into syngeneic C3H/HeN (or NSG) female or C57BL/6 male mice, respectively. Cells were injected as follows: parental SW1 cells for FIG. 13A; parental SM1 cells for FIG. 13E; SW1 cells stably expressing either empty vector (EV) or mouse fucose kinase (mFuk) for FIG. 1L; and parental SW1 cells for FIG. 13M. FTY720 was administered at 20 μg every 2 days starting on Day 12, just prior to the initiation of LF, until endpoint.", "data": [{"smiles": "C[C@H](O)[C@@H](O)[C@@H](O)[C@H](O)C=O", "note": "[L-fucose]", "values": [{"measurement": "cytotoxic CD4+T cells (CRTAM+)", "setting": "Day 28", "result": "transiently but significantly increased"}, {"measurement": "CD4 central memory, average # of cells", "setting": "Day 28, lymph nodes", "result": "2289.20 per 10^6 cells of total tumor"}, {"measurement": "CD4 effector memory, average # of cells", "setting": "Day 28, lymph nodes", "result": "445.15 per 10^6 cells of total tumor"}, {"measurement": "CD4 naïve, average # of cells", "setting": "Day 28, lymph nodes", "result": "9286.89 per 10^6 cells of total tumor"}, {"measurement": "CD4 stem central memory, average # of cells", "setting": "Day 28, lymph nodes", "result": "53601.81 per 10^6 cells of total tumor"}, {"measurement": "CD8 central memory, average # of cells", "setting": "Day 28, lymph nodes", "result": "295.92 per 10^6 cells of total tumor"}, {"measurement": "CD8 effector memory, average # of cells", "setting": "Day 28, lymph nodes", "result": "888.80 per 10^6 cells of total tumor"}, {"measurement": "CD8 naïve, average # of cells", "setting": "Day 28, lymph nodes", "result": "18072.26 per 10^6 cells of total tumor"}, {"measurement": "CD8 stem central memory, average # of cells", "setting": "Day 28, lymph nodes", "result": "980.96 per 10^6 cells of total tumor"}, {"measurement": "cDC1, average # of cells", "setting": "Day 28, lymph nodes", "result": "359.10 per 10^6 cells of total tumor"}, {"measurement": "cDC2, average # of cells", "setting": "Day 28, lymph nodes", "result": "743.69 per 10^6 cells of total tumor"}, {"measurement": "moDC, average # of cells", "setting": "Day 28, lymph nodes", "result": "37.66 per 10^6 cells of total tumor"}, {"measurement": "CD4 central memory, average # of cells", "setting": "Day 28, tumors", "result": "6.04 per 10^6 cells of total tumor"}, {"measurement": "CD4 effector memory, average # of cells", "setting": "Day 28, tumors", "result": "568.19 per 10^6 cells of total tumor"}, {"measurement": "CD4 naïve, average # of cells", "setting": "Day 28, tumors", "result": "30.44 per 10^6 cells of total tumor"}, {"measurement": "CD4 stem central memory, average # of cells", "setting": "Day 28, tumors", "result": "5.59 per 10^6 cells of total tumor"}, {"measurement": "CD8 central memory, average # of cells", "setting": "Day 28, tumors", "result": "1.24 per 10^6 cells of total tumor"}, {"measurement": "CD8 effector memory, average # of cells", "setting": "Day 28, tumors", "result": "108.29 per 10^6 cells of total tumor"}, {"measurement": "CD8 naïve, average # of cells", "setting": "Day 28, tumors", "result": "34.60 per 10^6 cells of total tumor"}, {"measurement": "CD8 stem central memory, average # of cells", "setting": "Day 28, tumors", "result": "0.00 per 10^6 cells of total tumor"}, {"measurement": "cDC1, average # of cells", "setting": "Day 28, tumors", "result": "2301.44 per 10^6 cells of total tumor"}, {"measurement": "cDC2, average # of cells", "setting": "Day 28, tumors", "result": "10732.04 per 10^6 cells of total tumor"}, {"measurement": "moDC, average # of cells", "setting": "Day 28, tumors", "result": "20903.90 per 10^6 cells of total tumor"}, {"measurement": "CD4 central memory, average # of cells", "setting": "Day 42, lymph nodes", "result": "1741.12 per 10^6 cells of total tumor"}, {"measurement": "CD4 effector memory, average # of cells", "setting": "Day 42, lymph nodes", "result": "5032.79 per 10^6 cells of total tumor"}, {"measurement": "CD4 naïve, average # of cells", "setting": "Day 42, lymph nodes", "result": "105779.76 per 10^6 cells of total tumor"}, {"measurement": "CD4 stem central memory, average # of cells", "setting": "Day 42, lymph nodes", "result": "1587.46 per 10^6 cells of total tumor"}, {"measurement": "CD8 central memory, average # of cells", "setting": "Day 42, lymph nodes", "result": "1741.12 per 10^6 cells of total tumor"}, {"measurement": "CD8 effector memory, average # of cells", "setting": "Day 42, lymph nodes", "result": "5032.79 per 10^6 cells of total tumor"}, {"measurement": "CD8 naïve, average # of cells", "setting": "Day 42, lymph nodes", "result": "105779.76 per 10^6 cells of total tumor"}, {"measurement": "CD8 stem central memory, average # of cells", "setting": "Day 42, lymph nodes", "result": "1587.46 per 10^6 cells of total tumor"}, {"measurement": "cDC1, average # of cells", "setting": "Day 42, lymph nodes", "result": "2141.34 per 10^6 cells of total tumor"}, {"measurement": "cDC2, average # of cells", "setting": "Day 42, lymph nodes", "result": "4375.69 per 10^6 cells of total tumor"}, {"measurement": "moDC, average # of cells", "setting": "Day 42, lymph nodes", "result": "1201.44 per 10^6 cells of total tumor"}, {"measurement": "CD4 central memory, average # of cells", "setting": "Day 42, tumors", "result": "38.18 per 10^6 cells of total tumor"}, {"measurement": "CD4 effector memory, average # of cells", "setting": "Day 42, tumors", "result": "111.09 per 10^6 cells of total tumor"}, {"measurement": "CD4 naïve, average # of cells", "setting": "Day 42, tumors", "result": "82.01 per 10^6 cells of total tumor"}, {"measurement": "CD4 stem central memory, average # of cells", "setting": "Day 42, tumors", "result": "16.67 per 10^6 cells of total tumor"}, {"measurement": "CD8 central memory, average # of cells", "setting": "Day 42, tumors", "result": "13.46 per 10^6 cells of total tumor"}, {"measurement": "CD8 effector memory, average # of cells", "setting": "Day 42, tumors", "result": "246.44 per 10^6 cells of total tumor"}, {"measurement": "CD8 naïve, average # of cells", "setting": "Day 42, tumors", "result": "109.29 per 10^6 cells of total tumor"}, {"measurement": "CD8 stem central memory, average # of cells", "setting": "Day 42, tumors", "result": "0.00 per 10^6 cells of total tumor"}, {"measurement": "cDC1, average # of cells", "setting": "Day 42, tumors", "result": "648.96 per 10^6 cells of total tumor"}, {"measurement": "cDC2, average # of cells", "setting": "Day 42, tumors", "result": "78.44 per 10^6 cells of total tumor"}, {"measurement": "moDC, average # of cells", "setting": "Day 42, tumors", "result": "169.08 per 10^6 cells of total tumor"}, {"measurement": "intratumoral CD4+T central and effector memory subpopulations", "setting": "FIG. 15c", "result": "increases"}, {"measurement": "intratumoral monocyte-derived DCs (moDCs)", "setting": "FIG. 15c", "result": "significantly increased"}, {"measurement": "lymph node cDC2s", "setting": "FIG. 15c", "result": "significantly increased"}, {"measurement": "L-fuc-triggered tumor suppression", "setting": "with FTY720 (inhibition of lymph node egress)", "result": "completely abrogated"}]}]}
